PubChem BioAssay AID179 (DTP/NCI, 2004)
“And” between values parts separate entries of the source, which are not always exact repeats. Equal values may be shown once. The source made the active and inactive calls.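 How the source made its calls: active means compounds giving half or more protection of infected cells from virus-caused growth loss, again on retest; inactive means the rest.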 Where a SMILES comes first, the peptide text is derived from it. The star is where a group is joined. Boc = CC(C)(C)OC(=O)*

System: CEM cells HIV-1 protection, formazan growth assay
Test: NCI AIDS Antiviral Assay
Details: for IC50: measured here: growth of uninfected CEM cells
Procedure, shortened: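 Human CEM cells, uninfected and HIV-1-infected, exposed to five drug concentrations; growth measured by soluble formazan assay and scored as percent protection from infection, with protecting compounds retested.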

| Structure (SMILES) | EC50 | IC50 | outcome |
| --- | --- | --- | --- |
| Cc1ccc(-c2ccc(Nc3c4ccccc4nc4ccccc34)cc2)cn1 | > 200 µM | 2.69 µM |  |
| CNC(=O)OCCN1c2ccccc2Sc2ccccc21 | > 200 µM | 77.6 µM |  |
| CN(C)c1ccc(/C=N/NC(=S)Nc2ccccc2)cc1 | > 200 µM | > 200 µM |  |
| NC(CCCCCCCCCCP(=O)(O)O)C(=O)O (stereo not drawn) | > 200 µM | > 200 µM |  |
| C/C(=N\NC(N)=S)c1ccc2c(c1)OCO2 |  |  | inactive |
| COc1ccc(N(CN2C(=O)CCC2C(=O)O)C(C)=O)cc1 (stereo not drawn) |  |  | inactive |
| Nc1nc(Cl)cc(OCC2(CO)CCCCC2)n1 | > 200 µM | 53.7 µM |  |
| O=C1c2ccccc2C(=O)N1CCS(=O)(=O)CCS(=O)(=O)CCN1C(=O)c2ccccc2C1=O | > 200 µM | > 200 µM |  |
| CCc1n[nH]c(CC)c1CCCCCCOc1ccc(OC)cc1Cl | > 200 µM | 9.77 µM and 10 µM |  |
| c1ccc(-c2nc3ccccc3nc2-c2ccccn2)nc1 | > 200 µM | > 200 µM |  |
| Cc1ccc(S(=O)(=O)NC2C(=O)c3ccccc3C(=O)C2n2ccnc2)cc1 (stereo not drawn) | > 200 µM | 87.1 µM |  |
| CC1(O)c2ccccc2CCc2ccccc21 | > 32.4 µM | > 32.4 µM |  |
| COc1ccc(S(=O)(=O)O)cc1N=N/C(=N/Nc1cc(S(=O)(=O)O)ccc1OC)C(=O)Nc1ccccc1 |  |  | inactive |
| CN(C)c1nn2c(-c3ccccc3)nnc2s1 |  |  | inactive |
| O=[N+]([O-])c1ccc(-c2cc(O)c3nc4ccccc4n3c2)cc1 | 178 µM | > 200 µM |  |
| CC(C)(C)C#CI1OC(=O)c2ccccc21 | > 200 µM | 2.14 µM |  |
| CC(=O)Nc1ccc(S(=O)(=O)N/N=C(\C)CN2C(=O)c3ccccc3C2=O)cc1 | > 229 µM | > 229 µM |  |
| COc1ccccc1NC(=S)N/C=C(\C#N)C(=O)c1ccc2ccccc2c1 | > 200 µM | 37.2 µM |  |
| CC1(C)OCC(C2OC(OC(=O)c3ccc(C(F)(F)F)cc3)C3OC(C)(C)OC23)O1 (stereo not drawn) |  |  | inactive |
| O=C(c1ccccc1)N1C(=S)N(c2ccccn2)C(=Nc2ccccc2)C1=Nc1ccccc1 | > 200 µM | 8.71 µM |  |
| O=c1cc(NCc2ccncc2)[nH]c(=O)[nH]1 |  |  | inactive |
| CNC(C#N)c1ccc(OC)cc1 (stereo not drawn) | > 200 µM | 105 µM |  |
| CN(C)C(=S)/N=c1\ssc(=S)n1Cc1ccco1 |  |  | inactive |

| Structure (SMILES) | EC50 | IC50 | outcome |
| --- | --- | --- | --- |
| O=c1oc2ccccc2c(O)c1Cc1c(O)c2ccccc2oc1=O | > 200 µM | 55 µM and > 200 µM |  |
| CCN(CC)CC1CCCCN1CC(=O)N1c2ccccc2NC(=O)c2ccccc21 (stereo not drawn) | > 200 µM | > 200 µM |  |
| Cc1ccccc1NC(=O)C(=O)CC(=O)c1sc(-n2nc(-c3ccccc3)cc2-c2ccccc2)nc1C | > 479 µM | > 479 µM |  |
| Cc1c(-c2ccccc2)cc(O)c2nc3ccccc3n12 | > 200 µM | 19.5 µM |  |
| C=CC1(C)CCC2C(=CCC3C2(C)CC(O)C(O)C3(C)COC2OC(CO)C(O)C(O)C2O)C1 (stereo not drawn) | > 200 µM | 39.8 µM |  |
| CC(NC(=O)C(Cc1ccc(OC(=O)c2ccccc2)cc1)NC(=O)OC(C)(C)C)C(=O)NCC(=O)NC(Cc1ccccc1)NC(=O)OCc1ccccc1 (stereo not drawn) | > 200 µM | 110 µM |  |
| Clc1ccc(CCn2cncn2)c(Cl)c1 | > 891 µM | 437 µM |  |
| Cc1ccc2c(=O)c3ccccc3sc2c1 | > 200 µM | > 200 µM |  |
| COc1oc(C(=O)NC2CCCCC2)c(-c2ccc(Cl)cc2)c1S(=O)(=O)c1ccccc1 | > 200 µM | 9.77 µM |  |
| O=C1OC(OCC#CCOC2OC(=O)C(Cl)=C2Cl)C(Cl)=C1Cl (stereo not drawn) | > 200 µM | 1.7 µM |  |
| CC(=O)Nc1ccc(C2SCc3nc4ccccc4n32)cc1 (stereo not drawn) | > 200 µM | > 200 µM |  |
| C(/C=N/NC1=NCCCCN1)=N\NC1=NCCCCN1 | > 200 µM | > 200 µM |  |
| C=C(C)c1ccc2c(c1)C(=O)C[C@@H]1[C@](C)(C#N)CCC[C@]21C | > 200 µM | 44.7 µM |  |
| NC(=O)CSc1c2cc(O)ccc2nc2ccc(O)cc12 | > 200 µM | 36.3 µM |  |
| COc1cccc(-c2nccc3c(OCc4ccccc4)c(OC)c(OC)cc23)c1 |  |  | inactive |
| CN(C)CCCNC(=O)CCNC(=O)c1cc(NC(=O)c2cc(NC(=O)c3cc(NC(=O)c4nccn4C)cn3C)cn2C)cn1C | > 200 µM | 17 µM |  |
| Cc1ccc(CC[P+](=O)CCc2ccc(C)nc2)cn1 | > 200 µM | > 200 µM |  |
| CC1(c2ccccc2)Oc2ccccc2-n2cccc2C1=O (stereo not drawn) | 2.4 µM | 12.9 µM |  |
| CC(C)=CCC[C@@H](C)C1=C(Nc2ccccc2Cl)C(O)=C(C)C(=O)C1=O | > 200 µM | 1.55 µM |  |
| NS(=O)(=O)c1ccc(Nc2c3ccccc3nc3c(C(=O)NCCO)cccc23)cc1 | > 200 µM | 5.25 µM |  |
| CCOC(=O)CCCN(C(=O)c1ccccc1)c1scc(-c2ccccc2)c1C(=O)OCC | > 200 µM | 11.5 µM |  |
| COc1cc(O)cc2c1C(=O)C(C)O2 (stereo not drawn) | > 200 µM | > 200 µM |  |
| CC1C2=C(CN3C[C@H](C)CCC13)C1CC3C(C[C@@H](O)C4C[C@@H](O)CC[C@]34C)C1CC2 (stereo partly drawn) | > 22.9 µM | > 22.9 µM |  |

| Structure (SMILES) | EC50 | IC50 | outcome |
| --- | --- | --- | --- |
| O=S1(=O)OC(c2cc(Br)c(O)c(Br)c2)(c2cc(Br)c(O)c(Br)c2)c2c(Br)c(Br)c(Br)c(Br)c21 |  |  | inactive |
| C=C1CC(COc2ccc3c(C)c(Cl)c(=O)oc3c2)(c2ccccc2)OC1=O (stereo not drawn) | > 200 µM | 0.363 µM |  |
| C1OC1CN1CCN(CC2CO2)CC1 (stereo not drawn) |  |  | inactive |
| CCCOC1=NC2=NC(OCCC)=NC3=C(Br)C=C(Br)C(=N1)N23 | > 42.7 µM | > 42.7 µM |  |
| O=C(CCSSc1ccccn1)ON1C(=O)CCC1=O | > 50.1 µM | > 50.1 µM |  |
| CCOC(=O)NP(=O)(N1CC1(C)C)N1CC1(C)C (stereo not drawn) | 123 µM | > 200 µM |  |
| CC(C)(C)OC(=O)[C@H]1CCC(=S)N1Cc1ccccc1 | > 200 µM | > 200 µM |  |
| Cc1cccc2c1OC(=O)C1CNCOC21 (stereo not drawn) | > 200 µM | 33.1 µM |  |
| CC[C@H]1[C@@H](C)C=C[C@@H](C)N1S(=O)(=O)c1ccc(C)cc1 | > 17.8 µM | > 17.8 µM |  |
| O=C1O/C(=C(\Br)c2cccc3ccccc23)c2ccccc21 | > 7.76 µM | > 7.76 µM |  |
| COc1ccc(-c2c(C#N)c(N)n(C3OC(CO)C(O)C(O)C3O)c(=S)c2C#N)cc1 (stereo not drawn) | > 200 µM | 95.5 µM and 129 µM |  |
| COc1ccc(C2CCc3cc4c(cc3/C2=N/OC(C)=O)OCO4)cc1OC (stereo not drawn) |  |  | inactive |
| Cn1c2ccccc2c2ccc3c(c21)C(=O)C=CC3=O | > 100 µM | 1.35 µM |  |
| NC1CC(=O)c2c1sc(Cl)c2Cl (stereo not drawn) |  |  | inactive |
| COP(=O)(OC)/C(=C/c1cn(C(c2ccccc2)(c2ccccc2)c2ccccc2)cn1)NC=O | > 200 µM | > 200 µM |  |
| O=C1NC(=O)C(c2ccccc2)(c2ccccc2)N1 | > 372 µM | > 372 µM |  |
| CN(C)c1ccc(C=C2C(=O)c3ccccc3C2=O)cc1 |  |  | inactive |
| CSCCC(NC(=O)C(CC(C)C)NC(=O)C1CCCN1C(=O)C(Cc1ccccc1)NC(=O)C(Cc1ccccc1)NC(=O)C(CCC(=O)O)NC(=O)OC(C)(C)C)C(N)=O (stereo not drawn) (Boc-EFFPLM-NH2; configuration not given here) | > 282 µM | > 282 µM |  |
| CC1=NNC(=O)C1C1CC(c2c[nH]c3ccccc23)=Nn2c(-c3ccccc3)nnc21 (stereo not drawn) | > 100 µM | 32.4 µM |  |
| CN(C)CC(C)(C)C(=O)/C=C/c1ccccc1 |  |  | inactive |
| S=c1ncnc2cc3[nH][nH]cc3cc12 | > 67.6 µM | 49 µM |  |
| O=C(c1ccccc1)c1cc(N=Nc2ccc(/C=C/c3ccc(N=Nc4cc(C(=O)c5ccccc5)c5cccnc5c4O)cc3S(=O)(=O)O)c(S(=O)(=O)O)c2)c(O)c2ncccc12 | > 38.9 µM | > 38.9 µM |  |
| O=c1c2c(no[n+]2[O-])c2ccccc2n1-c1ccccc1 | > 200 µM | 1.95 µM |  |

| Structure (SMILES) | EC50 | IC50 | outcome |
| --- | --- | --- | --- |
| S=c1[nH]n2c(CCCCCCCCc3nnc4sc(=S)[nH]n34)nnc2s1 | 123 µM | 178 µM |  |
| Oc1ccccc1C(Nc1nc2ccccc2s1)c1ccc2cccnc2c1O (stereo not drawn) | > 33.9 µM | 2.57 µM |  |
| COC(=Nc1ccccc1)SSC(C)C | > 200 µM | 2.82 µM |  |
| COc1ccc2c(C3(O)CCNCC3)c[nH]c2c1 |  |  | inactive |
| O=Nc1c(-c2ccccc2)nnc(-c2ccccc2)c1N=O | > 9.33 µM | > 9.33 µM |  |
| N#Cc1ccc(NC(=NCC(=O)O)Nc2cccc3ccccc23)cc1 | > 200 µM | > 200 µM |  |
| CN(C)c1ccc(N=C2C=CC(=C(C#N)C#N)c3ccccc32)cc1 |  |  | inactive |
| N/N=C(/Cc1ccccc1)NNC(N)=S | > 427 µM | 263 µM |  |
| Cc1cc2c(C(C)C)c(O)c(O)c(/C=N\O)c2c(O)c1-c1c(C)cc2c(C(C)C)c(O)c(O)c(/C=N/O)c2c1O | > 200 µM | 10 µM |  |
| Clc1ncccc1SSc1cccnc1Cl | > 200 µM | 89.1 µM |  |
| CCOC(=O)/C(=C\c1ccc(C#N)cc1)[Se]c1ccccc1 | > 52.5 µM | > 52.5 µM |  |
| S=C(N/N=C/c1ccccc1Cl)Nc1ccccc1 | > 200 µM | 135 µM |  |
| Cc1cc(C)c2cc(=O)oc-2c(C)c1 | > 93.3 µM | > 93.3 µM |  |
| CC(NC(=O)OC(C)(C)C)C(=O)C(N)=O (stereo not drawn) | > 200 µM | > 200 µM |  |
| O=C1C2=Cc3ccccc3OC2(O)Oc2ccc(O)cc21 (stereo not drawn) | > 200 µM | 50.1 µM |  |
| C=C[C@H]1C=Cc2c(OC)cccc2[C@@H]1COP1(=S)NC(C)C(c2ccccc2)O1 (stereo partly drawn) |  |  | inactive |
| CNS(=O)(=O)NNS(=O)(=O)c1ccc(F)cc1 | > 631 µM | 214 µM |  |
| CC(CCN1CCN(CCC(C)CC(C)(C)C)S1(=O)=O)CC(C)(C)C (stereo not drawn) |  |  | inactive |
| O=C1c2ccccc2-c2c(Br)c3ccccc3c(=O)n21 | > 100 µM | 69.2 µM |  |
| [Cl-].[Co+2].c1cnc2c(c1)ccc1cccnc12.c1cnc2c(c1)ccc1cccnc12.c1cnc2c(c1)ccc1cccnc12 | > 100 µM | 0.977 µM |  |
| COC(Cc1ccccc1)NC(C)=O (stereo not drawn) | > 200 µM | 186 µM |  |
| C[Si](C)(/C=C(\Br)CCOC1CCCCO1)c1ccccc1 (stereo not drawn) |  |  | inactive |
